Laboratory results from PMC4368888, “Preclinical to Clinical Translation of CNS Transporter Occupancy of TD-9855, a Novel Norepinephrine and Serotonin Reuptake Inhibitor” (International Journal of Neuropsychopharmacology, 2015).

Tests used:
human recombinant DAT = molecular target: T1, human recombinant DAT (Homo sapiens, UniProt Q01959); assay: [3H]-DA uptake inhibition in hDAT cells; type: cell-based; details: mean (95% CI), 3 to 9 experiments, read-out: Neurotransmitter Uptake Inhibition: pIC50 DAT (converted)
T1 construct: expressed in transfected cells; 'hDAT cells' for uptake
Source text: (§1) The in vitro pharmacology of TD-9855 (4-[2-(2, 4, 6-trifluorophenoxymethyl)phenyl]piperidine; Figure 1) at human recombinant and rat native monoamine transporters was characterized as described previously ([Tsuruda et al., 2010]; [Shen et al., 2013]). Radioligands were sourced commercially (Perkin Elmer Life Sciences or GE Healthcare Life Sciences). Briefly, membranes prepared from HEK293 (Human Embryonic Kidney 293) cells stably-transfected with human recombinant SERT (HEK293-hSERT), NET (HEK293-hNET), or DAT ([…]) were incubated for 1hr at 22°C in the absence, or presence, of TD-9855 and [^3H]-citalopram (1.0nM) for SERT, [^3H]-nisoxetine (2.0nM) for NET, and [^3H]-WIN35428 (3.0nM) for DAT in 50mM Tris-HCl, 120mM NaCl, 5mM KCl, 0.025% BSA, 100 μM ascorbic acid, pH 7.4. Rat cortical membrane preparations were incubated with [^3H]-citalopram (2.0nM) for SERT or [^3H]-nisoxetine (4.0nM) for NET for 1hr at 22°C. […] Binding and uptake assays were terminated by rapid filtration and radioactivity, determined by liquid scintillation spectroscopy.

rat native NET [1] = molecular target: T2, rat native NET (Rattus norvegicus, UniProt Q63380); assay: [3H]-NE uptake inhibition in rat cortical synaptosomes; type: biochemical; details: Rat; mean (95% CI), 3 to 9 experiments
Source text: as §1

rat native NET [2] = molecular target: T2, rat native NET; assay: [3H]-nisoxetine binding, rat cortical membranes; set-up: at human recombinant and rat native monoamine transporters; from tissue; details: mean (95% CI), 3 to 9 experiments, read-out: Transporter Binding: pKi NET (converted)
Source text: as §1

T2 sequence (Q63380 1-617): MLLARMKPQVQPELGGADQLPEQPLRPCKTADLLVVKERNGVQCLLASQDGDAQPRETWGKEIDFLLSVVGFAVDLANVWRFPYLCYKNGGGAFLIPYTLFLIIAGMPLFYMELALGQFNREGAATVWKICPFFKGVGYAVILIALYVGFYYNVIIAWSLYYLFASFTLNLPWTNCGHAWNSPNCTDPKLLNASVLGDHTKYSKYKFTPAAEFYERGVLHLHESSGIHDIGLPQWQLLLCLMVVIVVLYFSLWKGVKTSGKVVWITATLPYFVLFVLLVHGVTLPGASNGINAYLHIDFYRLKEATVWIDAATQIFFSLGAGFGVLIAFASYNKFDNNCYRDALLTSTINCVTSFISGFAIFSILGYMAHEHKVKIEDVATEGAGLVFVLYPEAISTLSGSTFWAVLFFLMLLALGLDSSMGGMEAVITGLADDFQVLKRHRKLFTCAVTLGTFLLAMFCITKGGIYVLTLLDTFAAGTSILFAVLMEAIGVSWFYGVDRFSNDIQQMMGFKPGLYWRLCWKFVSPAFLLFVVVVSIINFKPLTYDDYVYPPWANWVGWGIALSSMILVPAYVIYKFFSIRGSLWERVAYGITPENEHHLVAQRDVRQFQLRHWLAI
T1 sequence (Q01959 whole entry): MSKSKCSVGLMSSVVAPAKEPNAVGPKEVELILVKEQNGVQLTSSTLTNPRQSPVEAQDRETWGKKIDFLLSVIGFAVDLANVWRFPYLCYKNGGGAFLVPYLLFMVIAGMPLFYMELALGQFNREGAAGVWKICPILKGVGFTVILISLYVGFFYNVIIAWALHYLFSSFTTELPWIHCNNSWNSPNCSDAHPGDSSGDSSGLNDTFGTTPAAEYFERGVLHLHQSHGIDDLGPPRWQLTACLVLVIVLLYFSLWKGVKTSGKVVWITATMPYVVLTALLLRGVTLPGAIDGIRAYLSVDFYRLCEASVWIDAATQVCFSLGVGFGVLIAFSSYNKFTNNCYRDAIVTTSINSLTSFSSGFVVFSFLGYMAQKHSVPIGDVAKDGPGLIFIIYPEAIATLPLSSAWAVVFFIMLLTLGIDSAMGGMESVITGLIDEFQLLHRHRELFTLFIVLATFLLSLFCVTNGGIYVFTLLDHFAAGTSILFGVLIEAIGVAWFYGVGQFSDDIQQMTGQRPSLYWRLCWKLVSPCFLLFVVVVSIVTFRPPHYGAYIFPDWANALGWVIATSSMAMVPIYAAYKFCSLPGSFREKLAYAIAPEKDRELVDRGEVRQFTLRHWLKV

## Fc1cc(F)c(OCc2ccccc2C2CCNCC2)c(F)c1 [TD-9855, 4-[2-(2,4,6-trifluorophenoxymethyl)phenyl]piperidine]
Human recombinant DAT
  IC50: 158 nM
Rat native NET [1]
  Neurotransmitter Uptake Inhibition: pIC50 NET: 8.9 (8.6, 9.1)
Rat native NET [2]
  Ki: 2 nM
